Test results reported in patent US4006144A, “10,11-Dihydro-dibenzo(b,f)thiepin derivatives” (Hoffmann-La Roche Inc., priority 1972, dated 1977).
Structures can show the parent of a compound that is named as a salt. Where two headings read alike, the source gives them in different places.

Legend:
Assay type in all cases: in vivo
[1] = test system: homovanillic acid (HVA); assay: Determination of homovanillic acid (turnover of dopamine in the basal ganglia); conditions: rats; for Increase of HVA: 2 hours, untreated rats fixed at 100%
Method: Rats are injected with the derivative to be tested 2 hours before they are killed.
Homovanillic acid is extracted from the supernatant of the brain homogenate into butyl acetate and later into an aqueous solution and oxidised with potassium ferricyanide to a fluorescent dimer. From the increased concentration of homovanillic acid (HVA) it can be concluded that the derivative under investigation acts like chlorpromazine, i.e. it increases the turnover of dopamine in the basal ganglia. The homovanillic acid titre in untreated rats is arbitrarily fixed at 100%.

[2] = test system: mice; assay: Rotating rod test; conditions: for ED50: Mus musculus, po, read-out: ED50 (dose which reduces the holding time to 50%)
Method: In the rotating rod test, the ability of mice to achieve a coordinated, motoric performance is tested. After the peroral administration of the test substance, mice are placed on a horizontal, slowly rotating rod and the time until the mice fall off the rod is measured.

[3] = test system: rats; assay: Pole climbing test; conditions: for Quotient ED10 (Blocking of the unconditioned reaction)/ED50 (Blocking of the conditioned reaction): higher = greater selectivity of neuroleptic action
Method: This test gives information about behaviour reactions of rats. Rats are trained to avoid, by climbing up a vertical pole in the test chamber, an electrical impulse (unconditioned impulse) released via the wire-latticed floor some seconds after an acoustic signal (conditioned impulse).
The blocking of the conditioned reaction is determined by the parameter ED50 (mg/kg p.o.); the blocking of the unconditioned reaction is determined by the parameter ED10 (mg/kg p.o.).
The parameter ED50 (blocking of the conditioned reaction) gives a measure of the neuroleptic activity strength of the test substance. The quotient ED10 (blocking of the unconditioned reaction)/ED50 (blocking of the conditioned reaction) gives a measure of the quality of action of the test substance, in that with increasing quotient a greater selectivity of the neuroleptic action (slighter neurotoxic side-effects) is present.

[4] = Cataleptic action in rats (homolateral extremities crossed position); conditions: rat, in vivo, ip
Method: (§1) The following products were investigated:
(§2) The amimals are considered to be cataleptic when the homolateral extremities remain for at least 10 seconds in the crossed position. The number of cataleptic animals is noted every 30 minutes for 6 hours.

[5] = test system: rats; assay: as above; conditions: rats, intraperitoneal
Method: as §1, §2

Row | SMILES | Increase of HVA ([1]; 20 mg/kg p.o.) [%] | ED50 [2] [mg/kg] | Quotient ED10 (Blocking of the unconditioned reaction)/ED50 (Blocking of the conditioned reaction) ([3]; p.o.) | Increase of HVA ([1]; 50 mg/kg p.o.) [%] | activity in HVA test compared with chlorpromazine (in words) [1] | ED50 ([2]; mice, peroral) [mg/kg] | action in rotating rod test (in words) ([2]; mice, peroral) | TD50 at 6 h [4] [mg/kg] | cataleptic action in comparison to chlorpromazine (in words) [5] | ED50 ([3]; Rattus norvegicus, po, read-out: ED50 (Blocking of the conditioned reaction)) [mg/kg] | neuroleptic action and quality (selectivity) compared with chlorpromazine (in words) ([3]; p.o.) | TD50 at 6 h ([4]; rats, intraperitoneal, noted every 30 minutes for 6 hours, read-out: ED50 (dose at which 50% of the animals show catalepsy)) [mg/kg]
1 | CN(C)CCCN1c2ccccc2Sc2ccc(Cl)cc21 [Chlorpromazine, reference compound] | 321 | 5 | 3.5 | – | – | – | – | – | – | – | – | –
2 | O=C1OCCN1CCN1CCN(C2Cc3cc(Cl)ccc3Sc3ccccc32)CC1 (stereo not shown) [Product A, 3-[2-[4-(2-chloro-10,11-dihydro-dibenzo[b,f]thiepin-10-yl)-1-piperazinyl]-ethyl]-2-oxozolidinone maleate] | – | – | 4.2 | 340 | almost equalizes that of chloropromazine | 7.9 | strong action | > 100 | no cataleptic action or only a slight cataleptic action | 10 | strong neuroleptic action but also a quality (selectivity) of the neuroleptic action, both of which somewhat exceed that of chlorpromazine | –
3 | Cc1ccc2c(c1)CC(N1CCN(CCN3CCOC3=O)CC1)c1ccccc1S2.O=C(O)/C=C\C(=O)O (stereo not shown) [Product B, 3-[2-[4-(10,11-dihydro-2-methyl-dibenzo[b,f]thiepin-10-yl)-1-piperazinyl]-ethyl]-2-oxazolidinone maleate] | – | – | – | 255 | almost equalizes that of chloropromazine | – | – | – | no cataleptic action or only a slight cataleptic action | – | – | 70
